Reference: patent publication US9808423B2, “Preparation of suspension aerosol formulations” (Generics [UK] Limited, priority 2004, dated 2017)

Assay: Sympatec laser diffraction particle size of micronized medicament
Type: physicochemical
Conditions: Sympatec laser diffraction instrument; micronized starting material of Example 10
Experimental: A stock solution of 16.0 g of ethanol USP and 0.0053 g of oleic acid was prepared. Into each of three 14-mL fluoropolymer (FEP-PES) coated aluminum canisters was added 7 mg of micronized salmeterol xinafoate, having a volume mean diameter (X50) of 1.6 μm as measured using a Sympatec laser diffraction instrument. To each canister was then added 10.0 g of HFA-134a, at about −70° C., and approximately 0.20 g of the stock solution. A 50-μL metering valve was crimp sealed to each canister. Each canister was sonicated for 1.5 minutes to promote mixing of the formulation and deaggregation of the medicament particles.

volume mean diameter (X50): 1.6 μm
Compound: OCc1cc(C(O)CNCCCCCCOCCCCc2ccccc2)ccc1O (stereo not shown) [micronized salmeterol xinafoate, salmeterol xinafoate]
